Laboratory results from US7125990B2, “Imidazolyl derivatives as corticotropin releasing factor inhibitors” (Bristol-Myers Squibb COmpany, priority 2001, dated 2006).
pKi: −log10 of the molar value.

Molecular target: T1, CRF1 receptors (Homo sapiens, UniProt P34998)
T1 construct: endogenous in cells; host or cells: IMR-32 cells, transformed with 2.5 µM 5'-bromo-2'-deoxyuridine for 10 days; membrane preparation
T1 sequence (P34998 24-415): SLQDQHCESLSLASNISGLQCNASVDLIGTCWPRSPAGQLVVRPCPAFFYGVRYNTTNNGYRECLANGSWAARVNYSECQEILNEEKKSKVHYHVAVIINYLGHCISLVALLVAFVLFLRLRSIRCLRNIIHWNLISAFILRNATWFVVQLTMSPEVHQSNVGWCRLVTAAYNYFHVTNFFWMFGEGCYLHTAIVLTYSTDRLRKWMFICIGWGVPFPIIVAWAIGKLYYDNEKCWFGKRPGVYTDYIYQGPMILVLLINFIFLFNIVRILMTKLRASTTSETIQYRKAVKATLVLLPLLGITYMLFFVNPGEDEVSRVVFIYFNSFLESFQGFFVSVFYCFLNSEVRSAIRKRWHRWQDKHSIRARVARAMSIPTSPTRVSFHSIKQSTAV
Experiment: CRF1 receptor radioligand binding assay ([125I]-oCRF competition, IMR-32 cell membranes)
Conditions: IMR-32 cell membranes, [125I]-oCRF 100 pM; read-out: Ki (CRF-1R)
Procedure, shortened: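 Buffer: Tris pH 7.2 with MgCl2, BSA, Triton X-100, aprotinin, leupeptin; reaction stopped with ice-cold wash and filtered. Nonspecific binding set with 10 μM oCRF.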

SMILES	pKi
CCCCN(Cc1ccccc1)Cc1c(C(F)(F)F)nc2n1CCCN2c1c(C)cc(C)cc1Cl [Example 105, Benzyl-butyl-[8-(2-chloro-4,6-dimethyl-phenyl)-2-trifluoromethyl-5,6,7,8-tetrahydro-imidazo[1,2-a]pyrimidin-3-ylmethyl]-amine]	> 6.00
CCCN(CCOC)Cc1c(C(F)(F)F)nc2n1CCCN2c1c(C)cc(C)cc1Cl [Example 110, [8-(2-Chloro-4,6-dimethyl-phenyl)-2-trifluoromethyl-5,6,7,8-tetrahydro-imidazo[1,2-a]pyrimidin-3-ylmethyl]-(2-methoxy-ethyl)-propyl-amine]	> 6.00
Cc1cc(C)c(N2CCCn3c2nc(C(F)(F)F)c3CN(CC2CCC2)CC(F)(F)F)c(Cl)c1 [Example 112, [8-(2-Chloro-4,6-dimethyl-phenyl)-2-trifluoromethyl-5,6,7,8-tetrahydro-imidazo[1,2-a]pyrimidin-3-ylmethyl]-cyclobutylmethyl-(2,2,2-trifluoro-ethyl)-amine]	> 7.00
CCN(Cc1c(C(F)(F)F)nc2n1CCCN2c1c(C)cc(C)cc1Cl)CC1CC1 [Example 113, [8-(2-Chloro-4,6-dimethyl-phenyl)-2-trifluoromethyl-5,6,7,8-tetrahydro-imidazo[1,2-a]pyrimidin-3-ylmethyl]-cyclopropylmethyl-ethyl-amine]	> 7.00
Cc1cc(C)c(N2CCCn3c2nc(C(F)(F)F)c3CN(CC2CC2)CC(F)(F)C(F)(F)F)c(Cl)c1 [Example 115, [8-(2-Chloro-4,6-dimethyl-phenyl)-2-trifluoromethyl-5,6,7,8-tetrahydro-imidazo[1,2-a]pyrimidin-3-ylmethyl]-cyclopropylmethyl-(2,2,3,3,3-pentafluoro-propyl)-amine]	> 7.00
CCCN(Cc1c(C(F)(F)F)nc2n1CCCN2c1c(C)cc(C)cc1Cl)CC(F)(F)C(F)(F)F [Example 117, [8-(2-Chloro-4,6-dimethyl-phenyl)-2-trifluoromethyl-5,6,7,8-tetrahydro-imidazo[1,2-a]pyrimidin-3-ylmethyl]-(2,2,3,3,3-pentafluoro-propyl)-propyl-amine]	> 6.00
CCN(CCc1ccccc1)Cc1c(C(F)(F)F)nc2n1CCCN2c1c(C)cc(C)cc1Cl [Example 120, [8-(2-Chloro-4,6-dimethyl-phenyl)-2-trifluoromethyl-5,6,7,8-tetrahydro-imidazo[1,2-a]pyrimidin-3-ylmethyl]-ethyl-phenethyl-amine]	> 6.00
CCCN(CCc1ccccc1)Cc1c(C(F)(F)F)nc2n1CCCN2c1c(C)cc(C)cc1Cl [Example 121, [8-(2-Chloro-4,6-dimethyl-phenyl)-2-trifluoromethyl-5,6,7,8-tetrahydro-imidazo[1,2-a]pyrimidin-3-ylmethyl]-phenethyl-propyl-amine]	> 6.00
Cc1cc(C)c(N2CCCn3c2nc(C(F)(F)F)c3CN(CCC2CC2)CCC(F)(F)F)c(Cl)c1 [Example 122, [8-(2-Chloro-4,6-dimethyl-phenyl)-2-trifluoromethyl-5,6,7,8-tetrahydro-imidazo[1,2-a]pyrimidin-3-ylmethyl]-(2-cyclopropyl-ethyl)-(3,3,3-trifluoro-propyl)-amine]	> 6.00
Cc1cc(C)c(N2CCCn3c2nc(C(F)(F)F)c3CN(CCC2CC2)CC(F)(F)F)c(Cl)c1 [Example 126, [8-(2-Chloro-4,6-dimethyl-phenyl)-2-trifluoromethyl-5,6,7,8-tetrahydro-imidazo[1,2-a]pyrimidin-3-ylmethyl]-(2-cyclopropyl-ethyl)-(2,2,2-trifluoro-ethyl)-amine]	> 6.00
CCCN(Cc1ccc(Cl)cc1)Cc1c(C(F)(F)F)nc2n1CCCN2c1c(C)cc(C)cc1Cl [Example 129, (4-Chloro-benzyl)-[8-(2-chloro-4,6-dimethyl-phenyl)-2-trifluoromethyl-5,6,7,8-tetrahydro-imidazo[1,2-a]pyrimidin-3-ylmethyl]-propyl-amine]	> 6.00

Second part, the compound after the results:

pKi	SMILES
> 7.00	C=CCN(CC=C)Cc1c(C(F)(F)F)nc2n1CCCN2c1c(C)cc(C)cc1Cl [Example 103, Diallyl-[8-(2-chloro-4,6-dimethyl-phenyl)-2-trifluoromethyl-5,6,7,8-tetrahydro-imidazo[1,2-a]pyrimidin-3-ylmethyl]-amine]
> 6.00	CCCCN(C)Cc1c(C(F)(F)F)nc2n1CCCN2c1c(C)cc(C)cc1Cl [Example 104, Butyl-[8-(2-chloro-4,6-dimethyl-phenyl)-2-trifluoromethyl-5,6,7,8-tetrahydro-imidazo[1,2-a]pyrimidin-3-ylmethyl]-methyl-amine]
> 6.00	C=C(C)CN(CC)Cc1c(C(F)(F)F)nc2n1CCCN2c1c(C)cc(C)cc1Cl [Example 106, [8-(2-Chloro-4,6-dimethyl-phenyl)-2-trifluoromethyl-5,6,7,8-tetrahydro-imidazo[1,2-a]pyrimidin-3-ylmethyl]-ethyl-(2-methyl-allyl)-amine]
> 6.00	Cc1cc(C)c(N2CCCn3c2nc(C(F)(F)F)c3CN(C)Cc2ccccc2)c(Cl)c1 [Example 107, Benzyl-[8-(2-chloro-4,6-dimethyl-phenyl)-2-trifluoromethyl-5,6,7,8-tetrahydro-imidazo[1,2-a]pyrimidin-3-ylmethyl]-methyl-amine]
> 6.00	CCCCN(CC)Cc1c(C(F)(F)F)nc2n1CCCN2c1c(C)cc(C)cc1Cl [Example 108, Butyl-[8-(2-chloro-4,6-dimethyl-phenyl)-2-trifluoromethyl-5,6,7,8-tetrahydro-imidazo[1,2-a]pyrimidin-3-ylmethyl]-ethyl-amine]
> 6.00	CCCN(CCC)Cc1c(C(F)(F)F)nc2n1CCCN2c1c(C)cc(C)cc1Cl [Example 109, [8-(2-Chloro-4,6-dimethyl-phenyl)-2-trifluoromethyl-5,6,7,8-tetrahydro-imidazo[1,2-a]pyrimidin-3-ylmethyl]-dipropyl-amine]
> 6.00	CCCN(Cc1c(C(F)(F)F)nc2n1CCCN2c1c(C)cc(C)cc1Cl)CC1CCC1 [Example 111, [8-(2-Chloro-4,6-dimethyl-phenyl)-2-trifluoromethyl-5,6,7,8-tetrahydro-imidazo[1,2-a]pyrimidin-3-ylmethyl]-cyclobutylmethyl-propyl-amine]
> 6.00	CCCN(Cc1c(C(F)(F)F)nc2n1CCCN2c1c(C)cc(C)cc1Cl)CC(F)(F)F [Example 114, [8-(2-Chloro-4,6-dimethyl-phenyl)-2-trifluoromethyl-5,6,7,8-tetrahydro-imidazo[1,2-a]pyrimidin-3-ylmethyl]-propyl-(2,2,2-trifluoro-ethyl)-amine]
> 6.00	CCCN(CCC(F)(F)F)Cc1c(C(F)(F)F)nc2n1CCCN2c1c(C)cc(C)cc1Cl [Example 116, [8-(2-Chloro-4,6-dimethyl-phenyl)-2-trifluoromethyl-5,6,7,8-tetrahydro-imidazo[1,2-a]pyrimidin-3-ylmethyl]-propyl-(3,3,3-trifluoro-propyl)-amine]
> 6.00	Cc1cc(C)c(N2CCCn3c2nc(C(F)(F)F)c3CN(CCc2ccccc2)CCC(F)(F)F)c(Cl)c1 [Example 118, [8-(2-Chloro-4,6-dimethyl-phenyl)-2-trifluoromethyl-5,6,7,8-tetrahydro-imidazo[1,2-a]pyrimidin-3-ylmethyl]-phenethyl-(3,3,3-trifluoro-propyl)-amine]
> 6.00	Cc1cc(C)c(N2CCCn3c2nc(C(F)(F)F)c3CN(CCc2ccccc2)CC(F)(F)F)c(Cl)c1 [Example 119, [8-(2-Chloro-4,6-dimethyl-phenyl)-2-trifluoromethyl-5,6,7,8-tetrahydro-imidazo[1,2-a]pyrimidin-3-ylmethyl]-phenethyl-(2,2,2-trifluoro-ethyl)-amine]
> 6.00	CCN(CCC1CC1)Cc1c(C(F)(F)F)nc2n1CCCN2c1c(C)cc(C)cc1Cl [Example 123, [8-(2-Chloro-4,6-dimethyl-phenyl)-2-trifluoromethyl-5,6,7,8-tetrahydro-imidazo[1,2-a]pyrimidin-3-ylmethyl]-(2-cyclopropyl-ethyl)-ethyl-amine]
> 6.00	CCCN(CCC1CC1)Cc1c(C(F)(F)F)nc2n1CCCN2c1c(C)cc(C)cc1Cl [Example 124, [8-(2-Chloro-4,6-dimethyl-phenyl)-2-trifluoromethyl-5,6,7,8-tetrahydro-imidazo[1,2-a]pyrimidin-3-ylmethyl]-(2-cyclopropyl-ethyl)-propyl-amine]
> 6.00	Cc1cc(C)c(N2CCCn3c2nc(C(F)(F)F)c3CN(CCC(F)(F)F)Cc2ccccc2)c(Cl)c1 [Example 125, Benzyl-[8-(2-chloro-4,6-dimethyl-phenyl)-2-trifluoromethyl-5,6,7,8-tetrahydro-imidazo[1,2-a]pyrimidin-3-ylmethyl]-(3,3,3-trifluoro-propyl)-amine]
> 6.00	Cc1cc(C)c(N2CCCn3c2nc(C(F)(F)F)c3CN(CCC(F)(F)F)Cc2ccc(F)cc2)c(Cl)c1 [Example 127, [8-(2-Chloro-4,6-dimethyl-phenyl)-2-trifluoromethyl-5,6,7,8-tetrahydro-imidazo[1,2-a]pyrimidin-3-ylmethyl]-(4-fluoro-benzyl)-(3,3,3-trifluoro-propyl)-amine]
> 6.00	Cc1cc(C)c(N2CCCn3c2nc(C(F)(F)F)c3CN(CCC(F)(F)F)Cc2ccc(Cl)cc2)c(Cl)c1 [Example 128, (4-Chloro-benzyl)-[8-(2-chloro-4,6-dimethyl-phenyl)-2-trifluoromethyl-5,6,7,8-tetrahydro-imidazo[1,2-a]pyrimidin-3-ylmethyl]-(3,3,3-trifluoro-propyl)-amine]
